Assay results taken from paper PMC7321108, “1-Hydroxyanthraquinones Containing Aryl Substituents as Potent and Selective Anticancer Agents” (Molecules, 2020).
Where two headings read alike, the source gives them in different places.

Key:
[1] = test system: DU-145 prostate cancer cells; experiment: MTT cytotoxicity assay, DU-145; format: cell-based, human; details: 72 h incubation, mean ± SEM of three experiments, read-out: Cytotoxicity (GI50) against DU-145
Protocol: (§1) The cytotoxicity of the synthesized series of 4-substituted 5, 13–17, 22, 23, 2-substituted 25–30 and 2,4-disubstituted 1-hydroxy-9,10-anthraquinones 33–38, 40–45 was evaluated against a panel of seven different human cancer cell lines (glioblastoma cancer cells, human prostate cancer cells, T-cellular human leucosis, breast cancer cells) and also a normal cell line of hTERT-immortalized lung fibroblasts, using conventional MTT assay. Doxorubicin (DOX) is clinically used to treat cancer as drug in world and have a very wide antitumor spectrum. That we use them as positive control compounds. The cytotoxicity was determined by measuring the concentration inhibiting human tumor cell viability by 50% (GI50).
(§2) The human cancer cells of the glioblastoma (U-87MG, SNB-19, T98G), prostate cancer cell line (LNCAP, DU-145), the cells of T-cellular human leucosis (MT-4) and human breast cancer cells (MDA-MB-231) were used in this study. The cells were cultured in the RPMI-1640 medium that contained 10% embryonic calf serum, L-glutamine (2 mmol/L), gentamicin ([…]) and lincomycin (30 mkg/mL) in a CO2 incubator at 37 °C. The tested compounds were dissolved in DMSO and added to the cellular culture at the required concentrations. Three wells were used for each concentration. The cells which were incubated without the compounds were used as a control. Cells were placed on 96-well microliter plates and cultivated at 37 °C in 5% CO2/95% air for 72 h. The cell viability was assessed through an MTT [3-(4,5-dimethylthiazol-2-yl)-[…]-2H-tetrazolium bromide] conversion assay. A total of 1% MTT was added to each well. Four hours later, DMSO was added and mixed for 15 min. Optical density (D) of the samples was measured on a BioRad 680 multi-well spectrophotometer (USA) at the wavelength of 450 nm. The 50% cytotoxic dose GI50) of each compound (i.e., the compound concentration that causes the death of 50% of cells in a culture, or decreases the optical density twice as compared to the control wells) was calculated from the data obtained. Statistical processing of the results was performed using the Microsoft Excel-2007, […] 6.0 and GraphPad Prism 5.0 programs. The results are given as an average value ± a deviation from the average (mean ± standard error of the mean (SEM)). Reliability of differences (p) was estimated using the Student t test. The differences with p < 0.05 were considered as reliable. The experimental results are given as the data average values obtained from three independently conducted experiments.

[2] = test system: MDA-MB-231 breast cancer cells; experiment: MTT cytotoxicity assay, MDA-MB-231; format: cell-based; details: Homo sapiens, 72 h incubation, mean ± SEM of three experiments, read-out: Cytotoxicity (GI50) against MDA-MB-231
Protocol: as §1, §2

[3] = test system: MT-4 cells of T-cellular human leucosis; experiment: MTT cytotoxicity assay, MT-4; format: cell-based; details: MT4, 72 h incubation, mean ± SEM of three experiments, read-out: Cytotoxicity (GI50) against MT-4
Protocol: as §1, §2

[4] = test system: LNCAP prostate cancer cells; experiment: MTT cytotoxicity assay, LNCAP; format: cell-based, human; details: Homo sapiens, LNCaP, 72 h, 72 h incubation, mean ± SEM of three experiments, read-out: Cytotoxicity (GI50) against LNCAP
Protocol: as §1, §2

[5] = test system: U-87MG glioblastoma cells; experiment: MTT cytotoxicity assay, U-87MG; format: cell-based; details: Homo sapiens, 72 h incubation, mean ± SEM of three experiments, read-out: Cytotoxicity (GI50) against U-87MG
Protocol: as §1, §2

[6] = MTT cytotoxicity assay, normal hTERT-immortalized lung fibroblasts; format: cell-based; details: human, hTERT-immortalized lung fibroblasts (normal cell line), 72 h incubation, mean ± SEM of three experiments, read-out: Cytotoxicity (GI50) against hTERT Lung Fibroblasts
Protocol: as §1, §2

SNB-19 cells [7] = experiment: Cell cycle analysis by flow cytometry (Hoechst 33342), SNB-19; format: cell-based, human; details: SNB-19, treated at GI50 concentration, 24 h
Protocol: Due to the fact that the implementation of the antitumor potential of the currently existing antitumor agents is carried out by acting on various biological targets, at the next stage we performed the cell cycle analysis and DNA synthesis. Cell cycle analysis of 1-hydroxy-4-phenyl-9,10-anthraquinone 13, 1-hydroxy-4-(2,3-dimethoxyphenyl)-9,10- anthraquinone 16, 1-hydroxy-4-(furan-3-yl)-9,10-anthraquinone 23 and 1-hydroxy- 2-(2,3-dimethoxyphenyl)-9,10-anthraquinone 28 against SNB-19 cells for 24 h produced interesting results. After examining the data for compounds 13 and 16 (Table 3, Figure 4C,D), good number of cells are distributed in S phase, i.e., initiated DNA replication mechanism and also in G0/G1 phase, i.e., initial phase of cell cycle. G1 and G2 are the growth phases in cell cycle analysis, whereas S phase is a synthetic phase wherein DNA replication and DNA synthesis take place. The 2-aryl substituted compound 28 initiated the G0/G1 phase in analogy with doxorubicin and mitomycin. […] Further, compounds play a vital role in controlling the regulation of Sub-G1 and G2/M phases. Some difference in the mechanism of operation of 4-aryl substituted 13,16 and 2-aryl substituted 9,10-anthraquinones 28 has been observed during the progression of cell cycle like: S phase was highly disturbed by 13; G0/G1 phase was highly disturbed by 28. […] This observation can be explained by the influence on the cell repair systems that respond to the intercalation of compounds in DNA. […] Further, mitoxantrone promotes the arrest of S phase of cell cycle.
(§3) For cell cycle analysis cells were seeded in 6-well plates (30,000 per plate) and incubate for adhesion for 24 h. […] Cells were washed with PBS twice, harvested, pelleted and resuspended in 0.5 mL of PBS. For staining the Hoechst 33342 Ready Flow Reagent (Invitrogen) was used according to the instruction. CytoFLEX flow cytometer (Beckman Coulter) was used for analysis. The results are presented as a percentage of cell population standing in different stages of the cell cycle.

SNB-19 cells [8] = experiment: DNA synthesis investigation (BrdU/PI flow cytometry), SNB-19; format: cell-based, human; details: SNB-19, treated at GI50 concentration, 24 h, BrdU 30 min
Protocol: (§4) Cell cycle analysis was performed by Flow Cytometry using BrdU and PI staining [63]. For this experiment cells were seeded in 6-well plates (30,000 per plate) and incubate for adhesion for 24 h. […] For the next step the BrdU stock was added at a final concentration of 30 µM and cells were incubated for 30 min. Cells were washed with PBS, harvested using trypsine and resuspended at 0.3 mL of PBS. Permeabilization of cell membrane was performed as follows: 0.7 mL of ice-cold 100% EtOH was added into each sample, mixed gently and incubate at 4 °C for 1 h. Cells were pelleted and supernatant was removed completely. Then 0.5 mL of 2 N HCl/0.5% Triton X-100 was added and samples were incubated 30 min at room temperature. Cells were pelleted again, supernatant was removed. The pellet was resuspended in 0.5 mL of 0.1 M sodium tetraborate for 2 min and cells were pelleted again, washed with 150 µL of PBS/1% BSA and resuspended in 50 µM 0.5% Tween 20/1% BSA/PBS. […] After that the samples were resuspended in 0.5 mL of PBS containing 10 mg/mL RNAse A and 20 mg/mL PI. Samples were incubated at room temperature for 30 min and analyzed immediately or store at 4 °C. CytoFLEX flow cytometer (Beckman Coulter) was used for analysis. The results are presented as a percentage of cell population standing in DNA synthesis process.

[9] = test system: SNB-19 glioblastoma cells; experiment: MTT cytotoxicity assay, SNB-19; format: cell-based; details: Homo sapiens, 72 h incubation, mean ± SEM of three experiments, read-out: Cytotoxicity (GI50) against SNB-19
Protocol: as §1, §2

T98G glioblastoma cells = experiment: MTT cytotoxicity assay, T98G; format: cell-based; details: Homo sapiens, 72 h incubation, mean ± SEM of three experiments, read-out: Cytotoxicity (GI50) against T98G
Protocol: as §1, §2

pUC19 DNA plasmid = experiment: Gel retardation (electrophoretic mobility shift) assay; format: binding; details: 0.5 µg pUC19 plasmid, 0.025 µM test compound, room temperature 1 h, agarose gel 60 V 4 h
Protocol: The interaction of compounds 13, 15, 16, 23, 25 27, 28, 35, 40 and 44 with DNA was experimentally confirmed by study of the electrophoretic mobility. For this the gel retardation assay was performed. Doxorubicin in different concentration was used as a positive control. In order to avoid destruction of the possible complex of DNA with compounds, the electrophoresis was performed at low voltage. The results are presented at Figure 3.
To study the interaction between test compounds and DNA the electrophoretic mobility shift assay was performed. 0.5 µg of pUC19 plasmid was incubated with 0.025 µM of test compounds at room temperature for 1 h. After that the electrophoresis was performed in agarose gel (1/2%) in TBE buffer (60 V, 4 h). For visualization the gel was staining with ethidium bromide and analyzed with Bio-Rad gel documentation system.

DU-145 cells [10] = experiment: DNA synthesis investigation (BrdU/PI flow cytometry), DU-145; format: cell-based, human; details: DU-145, treated at GI50 concentration, 24 h, BrdU 30 min
Protocol: as §4

DU-145 cells [11] = experiment: Cell cycle analysis by flow cytometry (Hoechst 33342), DU-145; format: cell-based, human; details: DU-145, treated at GI50 concentration, 24 h
Protocol: We have carried out flow cytometric study of compounds 13, 16 and the isomeric compound 25 (Table 4, Figure 4G,H). Concentrations of 16 and 25 were taken as 5.4 and 14.5 μM, respectively, as per cytotoxic studies (Table 1). After examining the data for 13 (Figure 4G, Table 4), a good number of cells are arrested in Sub-G1, G0/G1 and S phase. Biosynthetic activity is very high during Sub-G1 phase; this is probably achieved by enhancing of apoptosis. The isomeric molecule 25 arrest G0/G1 and S phases, i.e., affecting the DNA synthesis/replication mechanism. Similarly, for 25 a different pattern is observed, i.e., variations at S and G2/M phases were observed, in comparison to the control. […] Some difference in the mechanism of operation of 13 and 25 has been observed during the progression of cell cycle like: Sub-G1 phase was highly disturbed by 13 and S and G0/G1 phases were highly disturbed by 25.
as §3

Row | SMILES | GI50 ([1]; Homo sapiens, DU-145, 72 h) [µM] | GI50 [2] [µM] | GI50 [3] [µM] | GI50 [4] [µM] | GI50 [5] [µM] | GI50 at 72 h [6] [µM] | Population (% Cell Distribution) G0/G1 (SNB-19 cells [7]) [%] | Population (% Cell Distribution) G2/M (SNB-19 cells [7]) [%] | Population (% Cell Distribution) S (SNB-19 cells [7]) [%] | Population (% Cell Distribution) Sub-G1 (SNB-19 cells [7]) [%] | Population (% Cell Distribution) Super-G2 (SNB-19 cells [7]) [%] | Population (% Cell Distribution) DNA Synthesis (SNB-19 cells [8]) [%] | GI50 [9] [µM] | GI50 (T98G glioblastoma cells) [µM] | melting point | Population (% Cell Distribution) DNA Synthesis (DU-145 cells [10]) [%] | Population (% Cell Distribution) G0/G1 (DU-145 cells [11]) [%] | Population (% Cell Distribution) G2/M (DU-145 cells [11]) [%] | Population (% Cell Distribution) S (DU-145 cells [11]) [%] | Population (% Cell Distribution) Sub-G1 (DU-145 cells [11]) [%] | also measured
1 | O=C1c2ccccc2C(=O)c2c(-c3ccoc3)ccc(O)c21 [Compound 23, 1-(Furan-3-yl)-4-hydroxyanthracene-9,10-dione] | 15.4 ± 0.96 | 18.2 ± 1.27 | 56.1 ± 1.96 | 22.2 ± 2.12 | 58.7 ± 2.48 | 69.5 ± 1.52 | 34.6 | 17.3 | 32.5 | 3.1 | 11.8 | 22.71 | 37 ± 1.41 | 34.8 ± 1.06 | 190 °C (dec.) | – | – | – | – | – | Retardation of plasmid DNA (electrophoretic mobility) (pUC19 DNA plasmid): cause a retardation of plasmid DNA
2 | COc1cccc(-c2ccc3c(c2O)C(=O)c2ccccc2C3=O)c1OC [Compound 28, 2-(2,3-Dimethoxyphenyl)-1-hydroxyanthracene-9,10-dione] | > 100 | 42.4 ± 3.32 | 18.2 ± 0.86 | 23.1 ± 1.24 | > 100 | 51.3 ± 3.18 | 54.5 | 13.7 | 22.4 | 3.6 | 5.8 | 16.83 | 5.77 ± 0.23 | 32.6 ± 1.68 | 176.3 °C (dec.) | – | – | – | – | – | –
3 | O=C1c2ccccc2C(=O)c2c1ccc(-c1ccccc1)c2O [Compound 25, 1-Hydroxy-2-phenylanthracene-9,10-dione] | 14.5 ± 0.73 | 16.5 ± 0.88 | > 100 | 32.1 ± 8.55 | > 100 | 44.6 ± 2.46 | – | – | – | – | – | – | 6.8 ± 1.19 | 21.5 ± 0.92 | 174.1 °C (dec.) | 20.27 | 32.3 | 7.4 | 32.4 | 25.9 | Population (% Cell Distribution) Super-G2 (DU-145 cells [11]): 2.0%
4 | COc1cccc2c1C(=O)c1c(O)c3c(c(O)c1C2=O)C[C@@](O)(C(=O)CO)C[C@@H]3O[C@H]1C[C@H](N)[C@H](O)[C@H](C)O1 [DOX, Doxorubicin, reference compound] | – | 7.9 ± 0.51 | 0.2 ± 0.04 | 2.11 ± 0.4 | 6.11 ± 0.15 | 2.2 ± 0.58 | 49.6 | 19.6 | 23.2 | 1.9 | 5.7 | 11.81 | 7.62 ± 0.69 | 4.5 ± 0.46 | – | 10.76 | 48.8 | 15.9 | 28.1 | 0.3 | GI50 [1]: 6.61 ± 0.34 µM; Population (% Cell Distribution) Super-G2 (DU-145 cells [11]): 6.8%
5 | CO[C@@]12[C@H](COC(N)=O)C3=C(C(=O)C(C)=C(N)C3=O)N1C[C@@H]1N[C@@H]12 [Mitomycin C, reference compound] | – | – | – | – | – | – | 63.6 | 4.1 | 25.2 | 0.0 | 7.0 | 7.44 | – | – | – | 5.74 | 50.3 | 16.3 | 13.2 | 0.1 | Population (% Cell Distribution) Super-G2 (DU-145 cells [11]): 20.2%
